Experimental data as given in article PMC5979572, “Imine Deaminase Activity and Conformational Stability of UK114, the Mammalian Member of the Rid Protein Family Active in Amino Acid Metabolism” (International Journal of Molecular Sciences, 2018).

Legend:
[1] = target: T1, UK114 (Capra hircus, UniProt P80601); test: decrease of semicarbazone formation rate, […] nm, imino acid generated in situ; type: biochemical; conditions: 50 mM sodium pyrophosphate pH 8.7, 25 °C, 10 mM semicarbazide, catalase
T1 construct: gene RIDA; full length 137 residues, recombinant from E. coli (pET-15b), N-terminal His-tag cut by thrombin leaving GSH before Met1; homotrimer
T1 sequence (P80601 1-137): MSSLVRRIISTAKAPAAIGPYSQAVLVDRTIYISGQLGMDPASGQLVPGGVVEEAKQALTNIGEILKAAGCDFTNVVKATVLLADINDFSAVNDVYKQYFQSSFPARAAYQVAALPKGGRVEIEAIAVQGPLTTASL

[2] = target: T2, D-amino acid oxidase (DAAO) (Sus scrofa, UniProt P00371); test: H2O2 production (HRP / o-dianisidine) and semicarbazone formation; type: biochemical; conditions: 50 mM sodium pyrophosphate pH 8.7, 25 °C
T2 construct: gene DAO; native, purified from pig kidneys
T2 sequence (P00371 whole entry): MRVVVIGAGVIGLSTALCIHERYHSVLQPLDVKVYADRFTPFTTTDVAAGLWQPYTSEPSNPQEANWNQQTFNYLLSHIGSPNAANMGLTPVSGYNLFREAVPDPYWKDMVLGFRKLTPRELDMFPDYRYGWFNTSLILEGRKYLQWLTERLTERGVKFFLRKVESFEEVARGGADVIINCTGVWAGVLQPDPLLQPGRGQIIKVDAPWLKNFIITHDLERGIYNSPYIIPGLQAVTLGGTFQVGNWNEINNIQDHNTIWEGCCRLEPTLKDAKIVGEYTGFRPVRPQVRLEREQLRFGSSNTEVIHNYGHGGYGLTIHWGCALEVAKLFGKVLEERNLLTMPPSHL

[3] = target: the molecule itself; test: SEC; analytical gel filtration on a calibrated Superdex 75 (10/30) column equilibrated with 0.9% NaCl; standards BSA dimer, BSA monomer, carbonic anhydrase, cytochrome c

CC(=N)C(=O)O [2-iminopropionate]
decrease of semicarbazone formation rate, 248 nm, imino acid generated in situ ([1]; imino acid from 5 mM L-Ala + LAAO or D-Ala + DAAO): the highest specificity is indeed observed with 2-iminopyruvate (2-iminopropionate)

CC(C)C[C@@H](N)C(=O)O [D-Leu]
H2O2 production (HRP / o-dianisidine) and semicarbazone formation [2]: Semicarbazone formation was observed using D-Ala, D-Leu, but not D-Ser, D-Thr, or D-Lys

CC(C)CC(=N)C(=O)O [imino acid derived from Leu]
decrease of semicarbazone formation rate, 248 nm, imino acid generated in situ ([1]; imino acid from 5 mM L-Leu + LAAO or D-Leu + DAAO): UK114 activity using the imino acid produced by DAAO from D-Leu was indistinguishable

B1: recombinant goat UK114 (Capra hircus), thrombin-cleaved (enzyme, Capra hircus (goat))
chain: GSHMSSLVRRIISTAKAPAAIGPYSQAVLVDRTIYISGQLGMDPASGQLVPGGVVEEAKQALTNIGEILKAAGCDFTNVVKATVLLADINDFSAVNDVYKQYFQSSFPARAAYQVAALPKGGRVEIEAIAVQGPLTTASL
notes: they precede the initiator methionine of UK114; also called RidA; not shown: His6, N-terminal, cleaved
stoichiometry N [3]: 3
